# Assay results reported in patent US20030219456A1, “Method of utilization of zygosaccharomyces rouxii” (priority 2002, published 2003).
# Tests used:
# Format in all cases: biochemical
# [1] = Peroxide value (POV) activity, modified Rodan's method; details: 0.1 g/ml in ethyl alcohol, 0.05 ml; 50° C., 3 days, dark; OD 500 nm
# Procedure: Peroxide value (POV) activity was determined by a slightly modified Rodan's method (Terasawa, N., Yamazaki, N., and Fukui Y: Antioxidant activity of water extracts of herbs, Nippon Shokuhin Kagaku Kogaku Kaishi, 48, 2, 99-104, 2001.)
# After mixing in a screw-capped test tube, the reaction mass was incubated inside a dark incubator at 50° C. for 3 days. The assay of liberated peroxide compounds was carried out as follows.
# After 3 minutes, optical density was measured at 500 nm. Percent POV activity was calculated as follows:
# Percent activity=100×(OD of sample or standard/OD of control)
# [2] = DPPH free radical scavenging activity (preferred embodiment); details: standard compounds 100 mg/ml (0.1 g/ml) in ethyl alcohol; OD 517 nm, 30 min
# Procedure: Free radical scavenging activity was then evaluated. Standard solutions (0.1 g/ml in ethyl alcohol) of BHA, BHT and vitamin E were freshly prepared. DPPH scavenging activity was determined as described below. The following observations and results were then recorded: [table] Optical density OD was measured at 517 nm at 0 min and 30 min after mixing. Percent free radical scavenging activity was calculated as follows: Percent activity=100×{Ac1−(At2−Ab1)}/Ac2, Where Ac1=OD of control at 0 min At2=OD of test at 30 min Ab1=OD of blank at 0 min Ac2=OD of control at 30 min
# [3] = DPPH free radical scavenging activity (Example 9); details: standard compounds 100 mg/ml in ethyl alcohol
# Procedure: The said Sample was washed with ethyl acetate to get organic acids crystallized out. The crystals mainly consisted of succinic acid, which was identified by RI and H-NMR. The remaining magma, called bio-polyphenols (BPP) was tested for its anti-oxidant activity. The BPP was dissolved in ethyl alcohol to get concentrations of 100 mg/ml to 400 mg/ml. Standard compounds of BHA, BHT and vitamin E, which are recognized as strong anti-oxidants, and ZR drink described in Example 4 were also employed for comparison. Concentration of standard compounds in ethyl alcohol was 100 mg/ml each. The assay method to determine the scavenging activity of free radical DPPH was as described below.
# Optical density OD was measured at 517 nm at 0 mm and 30 mm after mixing. Percent free radical scavenging activity was calculated as follows.
# Percent activity=(Ac 1−(At2−Ab 1)}/Ac2×100,
# Where Ac1=of control at 0 mm
# Ac2=OD of control at 30 mm
Compound,Percent activity (POV) = 100 x OD of sample or standard / OD of control [1] [%],Percent activity (free radical scavenging) [2] [%],Percent activity (free radical scavenging) [3] [%]
Cc1cc(C(C)(C)C)c(O)c(C(C)(C)C)c1 [BHT],13.5,83.4,83.4
vitamin E,0,83.0,83.0
COc1ccc(O)c(C(C)(C)C)c1 [BHA],8.9,83.0,83.0
